Assay results as given in patent EP0070133B1, “Secondary phenylethanol amines, processes for their preparation and their pharmaceutical application” (priority 1981, dated 1983).
Counter-ions that a name gives are not always drawn. Like-named read-outs stand apart in the source and are kept apart here.

How the values were obtained:
Female CFLP mice [1] = assay: Anti-hyperglycaemic activity: subcutaneous glucose load in fasted mice, area under blood glucose curve; type: in vivo; details: glucose 1 g/kg sc, 2 hour period, vs water control
Method: Female CFLP mice, each weighing approximately 25 g, were fasted for 24 hours prior to the study. The compounds under study were administered orally as an aqueous solution to each of 6 mice. 6 mice were given water as a control. 30 minutes later a blood sample (20 µl) was obtained from the tail for the analysis of blood glucose. Immediately after taking this blood sample, glucose (1 g/kg body weight) was administered subcutaneously to each mouse. Blood samples were then obtained from each mouse at 30 minute intervals for 120 minutes.
Compounds that produced a significant (P<0.05) reduction of blood glucose, compared with control mice given water, at any time interval, were considered active. The area under the blood glucose curve over the 2 hour period after the administration of the glucose was calculated for each compound and compared with the value for control animals.

Female CFLP mice [2] = assay: Effect on energy expenditure and food intake of mice; type: in vivo; details: Mus musculus; for response vs control in vivo at 23.9 mg/kg / response vs control in vivo at 26.3 mg/kg / response vs control in vivo at 25.3 mg/kg / response vs control in vivo at 23.6 mg/kg / response vs control in vivo at 24.3 mg/kg / response vs control in vivo at 22.7 mg/kg / response vs control in vivo at 19.2 mg/kg: po, 21 h; for response vs control in vivo at 23.1 mg/kg: 23.1 mg/kg po, mice, 21 hours after dosing, % of mice dosed with water
Method: Female CFLP mice each weighing approximately 24 g, were given food and water ad lib before and during the experiment. The compounds were dissolved in water by addition of one mole of hydrochloric acid per mole of compound and these solutions were administered orally to each of 12 mice. A further 12 mice were dosed orally with water. The mice were placed in boxes through which air was drawn and the oxygen content of the air leaving the boxes was measured. […] The food intake of the mice was measured over this same period of 21 hours. The results are expressed as a percentage of the mean food intake or rate of energy expenditure of the mice dosed with water.

Rat hearts = assay: Cardiac activity: rat hearts perfused by the Langendorff procedure; details: for Emax: reference standard, maximum response, no dose given
Method: Rat hearts were perfused by the Langendorff procedure as follows:- • Hearts were dissected free within 30 seconds of death and reverse perfused via the aorta and coronary vessels with Krebs-Ringer bicarbonate solution (pH 7.4, 37°C) gassed with 95% oxygen:5% carbon dioxide at a flow rate between 8-12 cm^3/minute. Responses were observed after injection of drug dissolved in isotonic saline into the perfusion media.
Results are expressed as a percentage of the maximum response due to salbutamol.

genetically obese mice = assay: Anti-obesity activity: carcass composition after 28 days of daily dosing; type: in vivo; details: 3.61 mg/kg p.o. daily for 28 days, Control 22.90
Method: The compounds were administered by oral gavage in water or carboxymethyl-cellulose suspension to genetically obese mice daily for 28 days. At the end of the time the carcass composition was determined. The results obtained were as follows:-

[3] = read-out: Mean Energy Expenditure (%)
[4] = 30 μg added to perfusate, perfused rat heart, read-out: Heart Rate
[5] = 30 μg added to perfusate, perfused rat heart, read-out: Heart Tension

`CC(Cc1ccc(OCCN2CCCCC2)cc1)NCC(O)c1cccc(Cl)c1` (stereo not shown) [Example 14, N-[2-(4-(2-(1-Piperidine)ethoxy)phenyl)-1-methylethyl]-2-hydroxy-2-(3-chlorophenyl)ethanamine dihydrochloride] was tested, and the “Reduction in area under Blood glucose curve (%)” value (“Reduction in area … (%)” below) (Female CFLP mice [1]; 1 μ moles/kg po) was 68%, the response vs control in vivo at 23.9 mg/kg (Female CFLP mice [2]; [3]) was 141% and the response vs control in vivo at 23.9 mg/kg (Female CFLP mice [2]; read-out: Mean Food Intake (%)) was 111%. The Emax at 0.03 mg (Rat hearts; [4]) was 0%, the Emax at 0.03 mg (Rat hearts; [5]) was 0% and the “g Lipid/Mouse Treated” value (genetically obese mice) was 19.83 g Lipid/Mouse.

In the case of `CC(Cc1ccc(OCCNCc2ccccc2)cc1)NCC(O)c1cccc(C(F)(F)F)c1` (stereo not shown) [Example 18, N-[2-(4-(2-Benzylaminoethoxy)phenyl)-1-methylethyl]-2-hydroxy-2-(3-trifluoromethylphenyl)ethanamine], the “Reduction in area … (%)” value (Female CFLP mice [1]; 2.5 μ moles/kg po) was 50%, the response vs control in vivo at 26.3 mg/kg (Female CFLP mice [2]; [3]) was 131% and the response vs control in vivo at 26.3 mg/kg (Female CFLP mice [2]; read-out: Mean Food Intake (%)) was 80%. The Emax at 0.03 mg (Rat hearts; [4]) was 12% and the Emax at 0.03 mg (Rat hearts; [5]) was 7%.

For `CCOC(=O)NCCOc1ccc(CC(C)NCC(O)c2cccc(C(F)(F)F)c2)cc1` (stereo not shown) [Example 20, N-[2-(4-(2-Ethoxycarbonylaminoethoxy)phenyl)-1-methylethyl]-2-hydroxy-2-(3-trifluoromethylphenyl)-ethanamine], the “Reduction in area … (%)” value (Female CFLP mice [1]; 2.5 μ moles/kg po) was 36%, the response vs control in vivo at 25.3 mg/kg (Female CFLP mice [2]; [3]) was 115% and the response vs control in vivo at 25.3 mg/kg (Female CFLP mice [2]; read-out: Mean Food Intake (%)) was 86%. It also gave an Emax at 0.03 mg (Rat hearts; [4]) of 12% and an Emax at 0.03 mg (Rat hearts; [5]) of 0%.

For `CC(=O)NCCOc1ccc(CC(C)NCC(O)c2cccc(C(F)(F)F)c2)cc1` (stereo not shown) [Example 21, N-[2-(4-(2-Acetylaminoethoxy)phenyl)-1-methylethyl]-2-hydroxy-2-(3-trifluoromethylphenyl)ethanamine], the “Reduction in area … (%)” value (Female CFLP mice [1]; 2.5 μ moles/kg po) was 44%, the response vs control in vivo at 23.6 mg/kg (Female CFLP mice [2]; [3]) was 119% and the response vs control in vivo at 23.6 mg/kg (Female CFLP mice [2]; read-out: Mean Food Intake (%)) was 102%. It also gave an Emax at 0.03 mg (Rat hearts; [4]) of 22% and an Emax at 0.03 mg (Rat hearts; [5]) of 24%.

In the case of `CNCCOc1ccc(CC(C)NCC(O)c2cccc(Cl)c2)cc1.Cl.Cl` (stereo not shown) [Example 22, N-[2-(4-(2-Methylaminoethoxy)phenyl)-1-methylethyl]-2-hydroxy-2-(3-chlorophenyl)ethanamine dihydrochloride], the “Reduction in area … (%)” value (Female CFLP mice [1]; 1 μ moles/kg po) was 43%, the response vs control in vivo at 24.3 mg/kg (Female CFLP mice [2]; [3]) was 124% and the response vs control in vivo at 24.3 mg/kg (Female CFLP mice [2]; read-out: Mean Food Intake (%)) was 84%. For the same molecule, the Emax at 0.03 mg (Rat hearts; Rattus norvegicus, read-out: Heart Rate) was 57% and the Emax at 0.03 mg (Rat hearts; Rattus norvegicus, read-out: Heart Tension) was 22%.

In the case of `CN(C)CCOc1ccc(CCC(C)(C)NCC(O)c2ccccc2)cc1.Cl.Cl` (stereo not shown) [Example 35, N-[3-(4-(2-Dimethylaminoethoxy)phenyl)-1,1-dimethylpropyl]-2-hydroxy-2-phenylethanamine dihydrochloride], the “Reduction in area … (%)” value (Female CFLP mice [1]; 250 μ moles/kg po) was 18%, the response vs control in vivo at 23.1 mg/kg (Female CFLP mice [2]; [3]) was 95% and the response vs control in vivo at 23.1 mg/kg (Female CFLP mice [2]; read-out: Mean Food Intake (%)) was 83%.

For `CCN(CC)CCOc1ccc(CC(C)NCC(O)c2cccc(C(F)(F)F)c2)cc1.O=C(O)/C=C/C(=O)O` (stereo not shown) [Example 36, N-[2-(4-(2-Diethylaminoethoxy)phenyl)-1-methylethyl]-2-hydroxy-2-(3-trifluoromethylphenyl)ethanamine fumarate], the “Reduction in area … (%)” value (Female CFLP mice [1]; 50 μ moles/kg po) was 56%, the response vs control in vivo at 22.7 mg/kg (Female CFLP mice [2]; [3]) was 132% and the response vs control in vivo at 22.7 mg/kg (Female CFLP mice [2]; read-out: Mean Food Intake (%)) was 78%.

For `CC(Cc1ccc(OCC#N)cc1)NCC(O)c1cccc(Cl)c1` (stereo not shown) [Example 38, N-[2-(4-Cyanomethoxylphenyl)-1-methylethyl]-2-hydroxy-2-(3-chlorophenyl)ethanamine], the “Reduction in area … (%)” value (Female CFLP mice [1]; 0.5 μ moles/kg po) was 63%, the response vs control in vivo at 19.2 mg/kg (Female CFLP mice [2]; [3]) was 132% and the response vs control in vivo at 19.2 mg/kg (Female CFLP mice [2]; read-out: Mean Food Intake (%)) was 81%.

`CC(C)(C)NCC(O)c1ccc(O)c(CO)c1` (stereo not shown) [Salbutamol, reference compound] was tested, and the Emax (Rat hearts; perfused rat heart, read-out: Heart Rate) was 100% and the Emax (Rat hearts; perfused rat heart, read-out: Heart Tension) was 100%.
